Patent US7795300B2, “External preparation for skin” (Kuraray Co., Ltd., priority 2003, dated 2010)
Where two headings read alike, the source gives them in different places.

Experiments:
melanoma B-16 cells = assay type: cell-based; conditions: 48 hours
Description: The effect of the combination of a compound (A) and 4-n-butyl resorcinol was studied using melanoma B-16 cells (obtained from Tomita Laboratory at Tohoku University, School of Medicine). MEM (modified Eagle's medium) supplemented with 15% FBS (fetal bovine serum) to which Compound 1 (centaureidin) and 4-butyl resorcinol at various concentrations were added was placed in each well of a microtiter plate. Melanoma B-16 cells were seeded into each well at a dose of 5×10^5 cells/ml and cultured for 48 hours. The cells were collected by means of centrifugal separation and washed twice with the medium, and then the color and number of the cells were judged using scores. Cells cultured without addition of both Compound 1 and 4-n-butyl resorcinol were used as a control, and judgment was carried out based on the following criteria: the color, score 0: the same as the control, score 1: slightly paler than the control, score 2: apparently paler than the control, score 3: cells were almost white, score 4: cells were white; the number of cells, score 0: almost all the cells were dead, score 1: nine-tenth of the cells were dead, score 2: about half the cells were dead, score 3: a few cells were dead, score 4: the number of cells was equal to that of the control. […] Such action is in good accordance with inhibitory action of Compound 1 on dendrites of melanocytes.

Normal human melanocytes = assay: Inhibitory action on elongation of dendrites; assay type: cell-based
Description: According to the following method, inhibitory action on elongation of dendrites was examined using human melanocytes.
(Cell) Normal human melanocytes
(Medium) Basic medium (Medium 154S) to which the following reagents were added
(Reagent) Growth additive: bovine pituitary extract (BPE) (final concentration in the medium: 0.4% v/v), fetus bovine serum (FBS) (final concentration in the medium: 0.5% v/v), human recombinant basic fibroblast growth factor (rFGF-B) (final concentration in the medium: 3 ng/ml), hydrocortisone (final concentration in the medium: 0.18 μg/ml), insulin (final concentration in the medium: 5 μg/ml), transferrin (final concentration in the medium: 5 μg/ml), phorbol 12-myristate 13-acetate (PMA) (final concentration in the medium: 10 ng/ml), heparin (final concentration in the medium: 3 μg/ml), PSA solution (mixed solution at a concentration of penicillin: 50,000 Unit/ml, a concentration of streptomycin: 50 μg/ml, and a concentration of amphotericin B: 12.5 μg/ml. Added 1 ml thereof for 500 ml of the medium.) (Test Method)
Normal human melanocytes were seeded (3,000 cells/well) into a 48-well microplate into which the above medium (198 μl/well) was poured, and cultured at 37° C. After 24 hours, Compound 1 (centaureidin) produced in Production Example 6 was dissolved in dimethyl sulfoxide (DMSO) at final concentrations in the medium of 0 mM (control), 0.1 mM, 0.5 mM, and 1 mM, to obtain sample solutions. To 1 μl of each of those sample solutions, 9 μl of the medium were added. 2 μl of each solution were added into each well of the microplate and culture was continued. After 24 hours from addition of the samples, the length of dendrites was observed.
In the same manner as in Test Example 1, but using extracts produced in Production Examples 1 to 5, sample solutions were prepared so that the final concentration of Compound 1 (centaureidin) in the medium was 0.5 mM, to thereby examine inhibitory action on elongation of dendrites.
In the same manner as in Test Example 1, Compounds 2 to 4 were further examined for inhibitory action on elongation of dendrites under the condition that the final concentration in the medium was 0.5 mM.

[1] = centaureidin 0 mM, 4-n-butyl resorcinol 0.01 % by mass
[2] = centaureidin 0 mM, 4-n-butyl resorcinol 0.1 % by mass
[3] = centaureidin 0 mM, 4-n-butyl resorcinol 0.5 % by mass
[4] = centaureidin 0.1 mM, 4-n-butyl resorcinol 0 % by mass
[5] = centaureidin 0.5 mM, 4-n-butyl resorcinol 0 % by mass
[6] = normal human melanocytes, 24 hours
[7] = Compounds 2 to 4, final concentration in the medium 0.5 mM, 24 hours

CCCCc1ccc(O)cc1O [4-n-butyl resorcinol]
Color of cells (melanoma B-16 cells; [1]): score 1
Number of cells (melanoma B-16 cells; [1]): score 3
Color of cells (melanoma B-16 cells; [2]): score 3
Number of cells (melanoma B-16 cells; [2]): score 2
Color of cells (melanoma B-16 cells; [3]): score 4
Number of cells (melanoma B-16 cells; [3]): score 1

COc1ccc(-c2oc3cc(O)c(OC)c(O)c3c(=O)c2OC)cc1O [Compound 1, 5,7-dihydroxy-3,6-dimethoxy-2-(5-hydroxy-4-methoxyphenyl)-4H-1-benzopyran-4-one]
Color of cells (melanoma B-16 cells; [4]): score 1
Number of cells (melanoma B-16 cells; [4]): score 3
Color of cells (melanoma B-16 cells; [5]): score 1
Number of cells (melanoma B-16 cells; [5]): score 3
Effect on cell death (in words) (melanoma B-16 cells; melanoma B-16 cells cultured with 4-n-butyl resorcinol): inhibits cell death
Length of dendrite (Normal human melanocytes; centaureidin 0.1 mM final concentration in medium, 24 hours after addition, control (0 mM) 140 ± 29): 101 ± 15 μm
Length of dendrite (Normal human melanocytes; centaureidin 0.5 mM final concentration in medium, 24 hours after addition, control (0 mM) 140 ± 29): 26 ± 8 μm
Length of dendrite (Normal human melanocytes; centaureidin 1 mM final concentration in medium, 24 hours after addition, control (0 mM) 140 ± 29): 24 ± 6 μm
Concentration at which inhibitory action on elongation of dendrites can be confirmed (Normal human melanocytes; [6]): at least 0.1 mM
Concentration at which inhibitory action on elongation of dendrites is particularly remarkable (Normal human melanocytes; [6]): ≥ 0.5 mM
Inhibitory action on elongation of dendrites (in words) (Normal human melanocytes; normal human melanocytes, 24 hours after addition): elongation of dendrites is inhibited

COc1c(O)c(OC)c2oc(-c3cc(O)c(O)c(O)c3)c(OC)c(=O)c2c1O [Compound 2, 5,7-dihydroxy-3,6,8-trimethoxy-2-(3,4,5-trihydroxyphenyl)-4H-1-benzopyran-4-one]
Length of dendrite (Normal human melanocytes; [7]): 34 ± 19 μm

CCOc1cc(-c2oc3cc(OC)c(OC)c(OCC)c3c(=O)c2OCC)ccc1OC [Compound 3, 3,5-diethoxy-6,7-dimethoxy-2-(5-ethoxy-4-methoxyphenyl)-4H-1-benzopyran-4-one]
Length of dendrite (Normal human melanocytes; [7]): 47 ± 28 μm

COc1cc(OC)c(-c2oc3cc(OC)c(O)c(O)c3c(=O)c2OC)cc1O [Compound 4, 5,6-dihydroxy-3,7-dimethoxy-2-(5-hydroxy-2,4-dimethoxyphenyl)-4H-1-benzopyran-4-one]
Length of dendrite (Normal human melanocytes; [7]): 31 ± 22 μm
